Measurements as given in patent publication US11261179B2, “Small molecules” (University of Dundee, priority 2017, dated 2022).
“Also recorded” adds a separate entry of the source.

How the values were obtained:
pVHL30 (VCB complex) = pVHL30 (VCB complex) (Homo sapiens, UniProt P40337); assay: ITC titration against VCB, long VHL isoform; assay type: binding
Method: Titrations were performed on an ITC200 micro-calorimeter (GE Healthcare). […] The final DMSO concentration was 0.15% v/v. VBC protein experiments were carried out in a buffer containing 20 mM Bis-tris propane, 150 mM NaCl, 1 mM TCEP, 0.15% v/v DMSO, pH 7.4. The titrations consisted of 19 injections of 2 μL compounds solution (150 μM, in the syringe) at a rate of 2 s/μL at 120 s time intervals into the VCB protein solution (20 μM, in the cell). An initial injection of compound solution (0.4 μL) was made and discarded during data analysis. All experiments were performed at 25° C., whilst stirring the syringe at 600 rpm. The data were fitted to a single binding site model to obtain the stoichiometry n, the dissociation constant Kd and the enthalpy of binding ΔH using the Microcal LLC ITC200 Origin software provided by the manufacturer.

[1] = biological target: T1, pVHL30 (long isoform of VHL) (Homo sapiens, UniProt P40337); assay: Western blot of VHL levels in HeLa cells; assay type: cell-based
T1 construct: endogenous in cells; host or cells: HeLa
Method: (§1) For single time point treatment experiments, cells were transferred in 6-well plates with 5×10^5 cells per well in 2 ml media in order to achieve 80% confluence the following day. Stock concentrations of compounds were prepared by solubilizing the powder in 100% v/v DMSO to the final desired stock concentration.
(§2) On the day of treatment, all compound samples were prepared as 100-fold concentrated compound solution using DMEM just before treatment. The experiment samples (20 μL) were added to the 6 well plate containing 2 ml of media. The final DMSO concentration was 0.1% v/v. Cells were incubated at 37° C. and 5% CO2 for the desired time before harvesting.
(§3) For time dependent treatment, cells were transferred in 6-well plates with 3×10^5 cells per well in 2 ml media. Samples were prepared as detailed above or the single time point experiments. Treatment was conducted at given time points prior to harvest.
Cells were transferred in 6-well plates with 5×10^5 cells per well in 2 ml media in order to achieve 80% confluence the day after. At t=0, MLN4924 was added into the desired wells at 3 μM final concentration and 0.1% v/v of DMSO. DMSO (0.1% v/v final conc.) was added to the remaining wells in order to match identical conc. of vehicle in all wells. At t=3 h, MG 132 was added into the desired wells at 50 μM final conc. and 0.1% v/v of DMSO. DMSO (0.1% v/v final conc.) was added to the remaining wells in order to achieve the same conc. of vehicle in all the wells. […] DMSO (0.1% v/v final conc.) was added to the remaining wells in order to obtain the same conc. of vehicle in all the wells. The total final concentration of DMSO was therefore 0.3% v/v. Plates were incubated for 4 h at 37° C. and 5% CO2 before harvesting.
Cells were transferred in 6-well plates with 5×10^5 cells per well in 2 ml media in order to achieve 80% confluence the day after. […] Plates were incubated for the desired time at 37° C. and 5% CO2 before harvesting.
For this experiments, cells were transferred in 6-well plates with 5×10^5 cells per well in 2 ml media in order to achieve 80% confluence the day after. […] Plates were incubated for the desired time at 37° C. and 5% CO2 before harvesting.
(§4) Cells were lysed in lysis buffer (20 mM Tris pH 8, 150 mM NaCl, 1% Triton x100) and a protease inhibitor cocktail (Roche) per 10 ml buffer. For protein extracts, the dishes were placed on ice. The media was aspirated and the tissue layer washed twice with ice-cold phosphate buffer saline (PBS). Lysis buffer (120 μl) was added and the cells detached from the surface with a cell scraper. After removal of the insoluble fraction by centrifugation, the protein concentration of the supernatant was determined by Pierce™ Coomassie (Bradford) Protein Assay Kit. Protein extracts were fractionated by SDS-PAGE on 4-12% Tris-Acetate NuPage® Novex® (Life Technologies) polyacrylamide gels and transferred to a nitrocellulose membrane using wet transfer. The membrane was then blocked with 5% w/v Bovine serum albumin (BSA) in Tris-buffered saline (TBS) with 0.1% w/v Tween-20. For detecting proteins the following primary antibodies in the given concentrations were used: anti-β-Actin (Cell Signaling Technology, 4970S, 13E5) 1:2000, anti-VHL (Cell Signaling Technology, #68547) 1:1000, anti-Hif-1α (BD Biosciences, 610959, clone 54) 1:1000, anti-hydroxy-HIF-1α (Hyp564) (Cell Signaling Techonology; #3434) 1:1000, anti-PHD2 (Bethyl Laboratories; A300-322A) 1:1000, anti-PHD3 (Bethyl Laboratories; A300-327A) 1:1000, anti-CRBN (Proteintech; 11435-1-AP) 1:1000.
(§5) Following incubation with a horseradish peroxidase-conjugated secondary antibody (Cell Signaling Technology), the signal was developed using enhanced chemiluminescence (ECL) Western Blotting Detection Kit (Amersham) on Amersham Hyperfilm ECL film (Amersham).
Band quantification was performed using ImageJ software and reported as relative amount as ratio of the each protein band relative to the lane's loading control. […]

[2] = system: HIF-1α / hydroxylated HIF-1α (Hdy-HIF-1α); assay: Western blot of HIF-1α and Hdy-HIF-1α levels in HeLa cells; assay type: cell-based, Human; conditions: HeLa, 1 μM, 10 h
Method: as §1, §2, §3, §4, §5
Band quantification was performed using ImageJ software and reported as relative amount as ratio of the each protein band relative to the lane's loading control. The values obtained were then normalized to 0.1% DMSO vehicle control.

T1 sequence (P40337 whole entry, canonical isoform): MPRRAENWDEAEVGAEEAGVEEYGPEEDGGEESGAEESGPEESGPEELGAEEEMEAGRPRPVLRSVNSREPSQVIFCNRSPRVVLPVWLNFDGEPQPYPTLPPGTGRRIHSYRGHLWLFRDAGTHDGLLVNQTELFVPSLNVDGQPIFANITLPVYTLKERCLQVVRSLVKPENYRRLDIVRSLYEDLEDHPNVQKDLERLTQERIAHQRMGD
Sequence of pVHL30 (VCB complex) (P40337 whole entry, canonical isoform): as above
Sequence of pVHL30 (VCB complex) (Q15370 1-104 partner limits assumed): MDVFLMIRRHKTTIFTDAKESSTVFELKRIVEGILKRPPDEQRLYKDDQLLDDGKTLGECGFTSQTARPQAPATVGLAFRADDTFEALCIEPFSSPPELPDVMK
Sequence of pVHL30 (VCB complex) (Q15369 17-112 partner limits assumed): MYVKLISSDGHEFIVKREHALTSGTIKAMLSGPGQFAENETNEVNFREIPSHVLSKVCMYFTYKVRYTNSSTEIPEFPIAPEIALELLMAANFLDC

Kd (pVHL30 (VCB complex)): 25 ± 3 nM
n (stoichiometry) (pVHL30 (VCB complex)): 0.866 ± 0.003
ΔG (pVHL30 (VCB complex)): -10.4 ± 0.1 kcal/mol
ΔH (pVHL30 (VCB complex)): -11.3 ± 0.1 kcal/mol
α (cooperativity/avidity) (pVHL30 (VCB complex)): 4
−TΔS (pVHL30 (VCB complex)): -0.9 ± 0.1 kcal/mol
effective degrading concentrations lower than inhibitory concentrations of VH032 [1]: > 3 orders of magnitude
increase in cellular activity compared to parent inhibitor VH032 [1]: > 1000 fold
DC99, complete depletion of pVHL30 ([1]; 4 h): 10 nM
DC50 ([1]; 24 h, read-out: half-degrading concentration (DC50) of pVHL30): ~100 nM
cellular activity with IOX4 pre-treatment ([1]; IOX4 50 μM 30 min before CM11 1 μM, 4 h): did not impact the cellular activity
degradation of pVHL30 with MG132 pre-treatment ([1]; MG132 50 μM 30 min before CM11 1 μM, 4 h): completely abrogated
degradation of pVHL30 with MLN4924 pre-treatment ([1]; MLN4924 3 μM before CM11 1 μM, 4 h): prevented
pVHL degradation with VH032 pre-treatment (competition) ([1]; VH032 150 μM 30 min before CM11 1 μM, 4 h): blocked pVHL degradation
decrease of pVHL30 level ([1]; time course, after 8 h): essentially to completion
SMILES: Cc1ncsc1-c1ccc(CNC(=O)[C@@H]2C[C@@H](O)CN2C(=O)[C@@H](NC(=O)COCCOCCOCCOCCOCCOCC(=O)N[C@H](C(=O)N2C[C@H](O)C[C@H]2C(=O)NCc2ccc(-c3scnc3C)cc2)C(C)(C)C)C(C)(C)C)cc1 [CM11, N^1,N^20-bis((S)-1-((2S,4R)-4-hydroxy-2-((4-(4-methylthiazol-5-yl)benzyl)carbamoyl)pyrrolidin-1-yl)-3,3-dimethyl-1-oxobutan-2-yl)-3,6,9,12,15,18-hexaoxaicosanediamide]
depletion/degradation of VHL (pVHL30) ([1]; 1 μM, 10 h): total knockdown; also recorded: complete depletion
HIF-1α level [2]: slight increase
protein levels of Hdy-HIF-1α [2]: detectable albeit low increase
